“And” between values parts separate entries of the source, which are not always exact repeats. Identical values can stand only once.
Assays:
[1] = biological target: T1, PD-L1 (Homo sapiens, UniProt Q9NZQ7); assay: Saturation binding assay on human PD-L1 transduced PC3 cells (assay buffer with 2.5% BSA); set-up: expressed in transfected cells; host or cells: PC3 cells transduced with human PD-L1 (PC3-PD-L1)
[2] = Proteolytic stability in human serum at 37 °C, radio-HPLC; assay type: in vitro ADME; conditions: 48 h
Procedure: For proteolytic stability studies, a solution of the radiolabeled compound was diluted with human serum in a ratio of 1:10. This mixture then underwent incubation at 37 °C while being shaken at 300 rpm. At each designated timepoint (1, 24 and 48 h), an aliquot was withdrawn and added to a detergent solution (water with 20% v/v EtOH, 5% v/v 5 mM aqueous EDTA, 0.5% v/v Triton X-100, 0.1% m/v saponin, 0.05% v/v 0.5 mM aqueous o-phenanthroline) in a ratio of 1:2 for precipitation of serum proteins. The mixture was cooled on ice for 5 min, followed by centrifugation at 12,000 g for 5 min. A minor portion of the resulting supernatant was subjected to analytical radio-HPLC (reversed-phase, Phenomenex Jupiter 300 C-18, 5 µm, 4.6 × 250 mm) with 10–95% acetonitrile (0.1% TFA) in water (0.1% TFA) in a linear gradient over 15 min, 1 mL/min, γ-detection). The assessment and graphical representations were performed using OriginPro® 9.0.

[3] = system: PC3 PD-L1 overexpressing and PD-L1-mock tumors; assay: PET imaging in NMRI-nude mice bearing PC3 PD-L1 and PC3 mock tumors; assay type: in vivo; conditions: for excretion pattern / clearance route in PET: PET 0–25 h p.i.; for SUVmax PC3 PD-L1 tumor / SUVmax PC3 mock tumor / SUVmax kidney / SUVmax liver: tracer only, i.v.
Procedure: Male athymic NMRI-nude mice (Rj:NMRI-Foxn1nu, Janvier Labs, Le Genest-Saint-Isle, France) aged between 8 to 16 weeks were employed for the study. General anesthesia was induced [~ 10% desflurane (Baxter, Deerfield, IL, USA) in 30 vol% oxygen + air] under controlled warming (37°C), and mice were subcutaneously injected with 3–5 × 10^6 PC3 PD-L1 and PC3 mock cells (in 50 µL PBS + 50 µL Matrigel, Corning, Glendale, CA, USA) into the right and left thigh, respectively. The growth of tumors was systematically monitored three times per week through caliper measurements, and animals with tumor sizes above 7 mm were included in the subsequent experiments.
PET and X-ray computed tomography (CT) scans were conducted under general anesthesia using a small animal nanoScan PET/CT scanner (Mediso, Budapest, Hungary), capable of imaging four animals simultaneously. CT images served attenuation correction and anatomical referencing. A total of three individual scans were conducted, corresponding to the timeframes of 0–2 h (dynamic reconstruction), 4–5 h, and 24–25 h (one frame reconstruction) after injection.
The PD-L1 radiotracer candidates (in 300 µL sterile 0.9% NaCl/HEPES buffer, pH 6–7, containing between 7 and 12 MBq, with molar activities exceeding 12 GBq/µmol) were intravenously delivered over 30 s through a catheter in the lateral tail vein. The PET acquisition was initiated simultaneously with the administration.
The acquired three-dimensional list mode data were sorted and binned within a 400–600 keV energy window, forming […] (15 × 10 s, 5 × 30 s, 5 × 60 s, 4 × 300 s, 3 × 600 s, 3 × 1200 s). Reconstruction of the time frames was accomplished using the Tera-TomoTM 3D algorithm, utilizing a voxel size of 0.4 mm and applying corrections for decay, scatter, and attenuation. The images were subjected to post-processing and analysis using Rover software (ABX GmbH, Radeberg, Germany), and were depicted as maximum intensity projections (MIPs) at the specified timepoints and scaling.
Three-dimensional volumes of interest were defined using fixed thresholding at 35–40% of the maximal measured intensity. Standardized uptake values (SUV = [MBq detected activity/mL tissue] / [MBq injected activity/g body weight], in mL/g) were then calculated within the selected volumes of interest, encompassing PD-L1 and mock tumors, as well as metabolizing organs.

[4] = biological target: T1, PD-L1; assay: Real-time radioligand binding (LigandTracer) on PC3 PD-L1 overexpressing cells, without BSA; set-up: expressed in transfected cells; host or cells: PC3 PD-L1 overexpressing cells
Procedure: For the saturation binding experiments, cells were detached with 0.05% Trypsin–EDTA (Gibco, USA), and counted (CASY1 cell counter, Schaerfe System, Reutlingen, Germany). Cells were then diluted in medium to ~ 160,000 cells/mL and seeded in 48 well plates (Falcon Multiwell #353078, ThermoFisher, Karlsruhe, Germany) for at least 2 days prior to saturation binding experiments. For real-time radioligand binding, approximately 400,000 cells/mL were seeded into one side of petri dishes (3 mL, Nunclon, # 150350, ThermoFisher Germany) ~ 24 h before the experiments.
To investigate binding kinetics, including the association rate constant (ka) and dissociation rate constant (kd), as well as the dissociation constant (KD), a real-time assay system (LigandTracer Yellow or LigandTracer White, Ridgeview Instruments AB, Uppsala, Sweden) was utilized. The petri dish contained attached cells in medium (3 mL) on one side, while radioactivity was detected on the opposing side. The petri dish is set upon an inclined base, allowing continuous measurement of alternating portions of the dish for bound radioligand (cells) compared to the background signal (no cells). Binding experiments were carried out at room temperature using CO2-independent medium (Gibco #18045088, ThermoFisher Germany).
The association phase consisted of incubation with two concentrations (30 and 90 nM, each for 90 min) of our ^64Cu-labeled PD-L1-radioligands, binding to PC3 PD-L1 overexpressing cells. Following this, the incubation medium was replaced with fresh medium, and the dissociation phase was monitored for a minimum of 2 h. […] Data were recorded as decay-corrected counts per second (CPS). Subsequently, binding data were analyzed using TraceDrawer software (version 1.9.2, Ridgeview Instruments AB, Uppsala, Sweden). Traces were imported, potential spikes (instances of sudden CPS increases exceeding 100% of the previous data point) were eliminated, and each trace was normalized to its own baseline (set as 0%) and its maximum value (set as 100%).

[5] = n-octanol/PBS pH 7.4, shake flask
Procedure: The n-octanol/water distribution coefficients for each radioligand were determined using the shake-flask method. Each experiment was conducted in triplicate. To initiate the experiment, 30 µL of the labeling mixture was combined with 570 µL of PBS (pH 7.4) and 600 µL of n-octanol in a 1.5 mL Eppendorf-Tube. The resulting mixture was shaken at room temperature at 1500 rpm for 5 min before undergoing centrifugation. An aliquot was extracted from each phase, and radioactivity was measured on a γ-counter (ISOMED 2160). Subsequently, mean values were calculated and adjusted for background activity. The log D7.4 value was determined utilizing the equation: logD7.4=logAn-octanol/APBS

[6] = tracer +500 nM respective unlabeled compound, 1-2 hour p.i., mice
[7] = tracer +500 nM respective unlabeled compound, 4-5 hour p.i., mice
[8] = tracer +500 nM respective unlabeled compound, 24-25 hour p.i., mice
[9] = 1-2 hour p.i., mice, listed as [64Cu]Cu-15
[10] = 1-2 hour p.i., mice, listed as [64Cu]Cu-17
[11] = 4-5 hour p.i., mice, listed as [64Cu]Cu-17
[12] = 24-25 hour p.i., mice, listed as [64Cu]Cu-17

T1 sequence (Q9NZQ7 19-290): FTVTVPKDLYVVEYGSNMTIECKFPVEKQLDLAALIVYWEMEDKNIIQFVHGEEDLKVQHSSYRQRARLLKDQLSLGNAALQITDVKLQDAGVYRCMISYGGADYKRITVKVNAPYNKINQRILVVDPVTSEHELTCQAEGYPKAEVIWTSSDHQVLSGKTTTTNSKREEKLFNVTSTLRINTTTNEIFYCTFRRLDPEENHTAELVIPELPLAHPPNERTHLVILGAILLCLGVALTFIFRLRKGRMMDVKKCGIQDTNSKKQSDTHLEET

## Cc1c(COc2cc(OCc3cncc(S(C)(=O)=O)c3)c(CN[C@@H](CS(=O)(=O)O)C(=O)NCCS(=O)(=O)O)cc2Br)cccc1-c1cccc(OCc2cn(CCCN3CCN(C(=O)[C@H](CS(=O)(=O)O)NC(=O)CN4CCCN5CCN(CCCN(CC(=O)[O-])CC5)CC4)CC3)nn2)c1C.[64Cu+2] [[^64Cu]Cu-15]
[1]; human PD-L1 transduced PC3 cells, on ice 90 min, PBS + 2.5% w/v BSA
  Kd: 185 nM
[1]; saturation binding, pmol/mg protein, PC3 PD-L1 cells
  Bmax: 2.58 ± 0.35 pmol/mg
[2]
  intact radioligand after incubation in human serum: 88%
[3]; blocking, mice
  PD-L1 tumor uptake after preinjection of 500 nmol of cold ligand: not significantly reduced
[3]; mice
  excretion pattern / clearance route in PET: hepatobiliary excretion pattern
[3]; tracer +500 nM respective unlabeled compound (injected 5 min prior), 1-2 hour p.i., mice
  SUVmax PC3 PD-L1 tumor, blocking: 1.58
[3]; [6]
  SUVmax PC3 mock tumor, blocking: 1.17
  SUVmax kidney, blocking: 7.41
  SUVmax liver, blocking: 1.49
[3]; [7]
  SUVmax PC3 PD-L1 tumor, blocking: 0.77
  SUVmax PC3 mock tumor, blocking: 0.57
  SUVmax kidney, blocking: 0.78
  SUVmax liver, blocking: 1.82
[3]; [8]
  SUVmax PC3 PD-L1 tumor, blocking: 0.91
  SUVmax PC3 mock tumor, blocking: 0.78
  SUVmax kidney, blocking: 0.51
  SUVmax liver, blocking: 0.78
[3]; 1-2 hour p.i., mice
  SUVmax PC3 PD-L1 tumor: 1.03 ± 0.23
  SUVmax PC3 mock tumor: 0.61
  SUVmax kidney: 3.26 ± 0.98
  SUVmax liver: 3.80 ± 0.33
[3]; [9]
  SUVmax PC3 PD-L1 tumor: 1.03
  SUVmax kidney: 3.26
  SUVmax liver: 3.80
[3]; 4-5 hour p.i., mice
  SUVmax PC3 PD-L1 tumor: 0.66 ± 0.16
  SUVmax PC3 mock tumor: 0.44
  SUVmax kidney: 0.68
  SUVmax liver: 1.41
[3]; 4-5 hour p.i., mice, listed as [64Cu]Cu-15
  SUVmax PC3 PD-L1 tumor: 0.66
[3]; 24-25 hour p.i., mice
  SUVmax PC3 PD-L1 tumor: 0.90 ± 0.09
  SUVmax PC3 mock tumor: 0.76
  SUVmax kidney: 0.48
  SUVmax liver: 1.01
[3]; 24-25 hour p.i., mice, listed as [64Cu]Cu-15
  SUVmax PC3 PD-L1 tumor: 0.90
[4]; PC3 PD-L1 overexpressing cells, room temperature, without BSA
  Kd: ~20 nM and 19.1 nM
[4]; association rate constant, real-time binding
  ka: (5.10 ± 0.55) × 10^3 (M × s)^–1
[4]; dissociation rate constant, real-time binding
  kd: (0.96 ± 0.02) × 10^–4 s^–1
[5]
  Log D7.4: –2.11 ± 0.02

## Cc1c(COc2cc(OCc3cncc(S(C)(=O)=O)c3)c(CN[C@@H](CS(=O)(=O)O)C(=O)NCCS(=O)(=O)O)cc2Br)cccc1-c1cccc(OCc2cn(CCCN3CCN(C(=O)[C@H](CS(=O)(=O)O)NC(=O)CCCC(=O)NC45CNCCNCC(NC(=O)CCCC(=O)N[C@@H](CS(=O)(=O)O)C(=O)N6CCN(CCCn7cc(COc8cccc(-c9cccc(COc%10cc(OCc%11cncc(S(C)(=O)=O)c%11)c(CN[C@@H](CS(=O)(=O)O)C(=O)NCCS(=O)(=O)O)cc%10Br)c9C)c8C)nn7)CC6)(CNCCNC4)CNCCNC5)CC3)nn2)c1C.[64Cu+2] [[^64Cu]Cu-17]
[2]
  intact radioligand after incubation in human serum: 86%
[3]; 24–25 h p.i.
  contrast of PD-L1 positive tumor to PD-L1 negative tumor: 109%
[3]; mice
  excretion pattern / clearance route in PET: rather renal than hepatobiliary clearance
[3]; 1-2 hour p.i., mice
  SUVmax PC3 PD-L1 tumor: 0.49 ± 0.11
  SUVmax PC3 mock tumor: 0.31
  SUVmax kidney: 1.32 ± 0.47
  SUVmax liver: 17.0 ± 1.48
[3]; [10]
  SUVmax PC3 PD-L1 tumor: 0.49
  SUVmax kidney: 1.32
  SUVmax liver: 17.03
[3]; 4-5 hour p.i., mice
  SUVmax PC3 PD-L1 tumor: 0.81
  SUVmax PC3 mock tumor: 0.50
  SUVmax kidney: 2.18 ± 0.80
  SUVmax liver: 14.4 ± 1.26
[3]; [11]
  SUVmax kidney: 2.18
  SUVmax liver: 14.35
[3]; 24-25 hour p.i., mice
  SUVmax PC3 PD-L1 tumor: 2.47 ± 1.04
  SUVmax PC3 mock tumor: 1.18
  SUVmax kidney: 2.40 ± 0.60
  SUVmax liver: 8.62 ± 0.84
[3]; [12]
  SUVmax PC3 PD-L1 tumor: 2.47
  SUVmax kidney: 2.40
  SUVmax liver: 8.62

Reference: article PMC10876507, “Chelator impact: investigating the pharmacokinetic behavior of copper-64 labeled PD-L1 radioligands” (EJNMMI Radiopharmacy and Chemistry, 2024)
